IC50 data for 46 molecules are collected here from patent US20060252807A1, “Novel ortho-terphenyl inhibitors of p38 kinase and methods of treating inflammatory disorders” (Kalypsys, Inc., priority 2005, published 2006).

In this assay the target is T1, active p38 alpha enzyme (Upstate Biotechnology) (Homo sapiens, UniProt Q16539).
T1 construct: purchased Upstate Biotechnology
Kind of assay: p38α biochemical assay (ATP turnover, luminescent detection, Cambrex PKlight). The conditions noted are these: p38α biochemical assay, Table 1 Biological Activity. An outline of the steps: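 p38α + MapkapK2 (whole protein substrate) + 1.4 uM ATP final; Tris/MOPS buffer with MgCl2, CaCl2, EGTA, EDTA, glycerol, β-ME, BSA; 2 h at 30C; luminescent detection of remaining ATP.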

Each structure is given as a SMILES string.

T1 sequence (Q16539 whole entry): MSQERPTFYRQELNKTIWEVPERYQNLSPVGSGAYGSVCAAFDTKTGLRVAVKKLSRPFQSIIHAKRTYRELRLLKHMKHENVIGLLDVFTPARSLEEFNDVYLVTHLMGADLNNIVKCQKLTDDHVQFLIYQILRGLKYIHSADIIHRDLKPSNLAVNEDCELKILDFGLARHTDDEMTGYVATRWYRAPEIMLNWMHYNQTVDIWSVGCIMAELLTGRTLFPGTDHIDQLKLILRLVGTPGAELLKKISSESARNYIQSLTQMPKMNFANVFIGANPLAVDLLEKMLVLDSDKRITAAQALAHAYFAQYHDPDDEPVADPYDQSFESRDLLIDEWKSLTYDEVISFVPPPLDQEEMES

In turn, `CC(C)NC(=O)c1csc(-c2oc(CNC(=O)CCc3nc4ccccc4[nH]3)nc2-c2ccc(F)cc2)n1` [Example 250] returned an IC50 of at most 1000 nM.
Then `CC(C)NC(=O)c1csc(-c2oc(CNC(=O)c3cccc(Cl)c3Cl)nc2-c2ccc(F)cc2)n1` [Example 251], with at most 1000 nM; and `CC(C)NC(=O)c1csc(-c2oc(CNC(=O)c3ccc(Cl)cc3Cl)nc2-c2ccc(F)cc2)n1` [Example 252], with at most 1000 nM; and `CC(C)NC(=O)c1csc(-c2oc(CNC(=O)c3cc(Cl)ccc3Cl)nc2-c2ccc(F)cc2)n1` [Example 253], with at most 1000 nM.
Then `CC(C)NC(=O)c1csc(-c2oc(CNC(=O)c3cc(F)c(F)c(O)c3F)nc2-c2ccc(F)cc2)n1` [Example 254], with over 1000 nM.
Then `CC(C)NC(=O)c1csc(-c2oc(CNC(=O)/C=C/c3ccc4c(c3)OCO4)nc2-c2ccc(F)cc2)n1` [Example 255], with over 1000 nM; and `Cc1ccc(C(=O)CCC(=O)NCc2nc(-c3ccc(F)cc3)c(-c3nc(C(=O)NC(C)C)cs3)o2)cc1` [Example 256], with over 1000 nM; and `CCCCCc1ccc(C(=O)NCc2nc(-c3ccc(F)cc3)c(-c3nc(C(=O)NC(C)C)cs3)o2)cc1` [Example 257], with over 1000 nM.
Consider `CC(C)NC(=O)c1csc(-c2oc(CNC(=O)c3cc(F)c(F)cc3Cl)nc2-c2ccc(F)cc2)n1` [Example 258], for which the concentration for half-maximal inhibition (IC50) is at most 1000 nM.
The value for `CC(C)NC(=O)c1csc(-c2oc(CNC(=O)c3cc(F)c(Cl)cc3F)nc2-c2ccc(F)cc2)n1` [Example 259] was over 1000 nM.
`CCN(CC)c1ccc(C(=O)NCc2nc(-c3ccc(F)cc3)c(-c3nc(C(=O)NC(C)C)cs3)o2)cc1` [Example 260]: the IC50 is at most 1000 nM.
Consider `COc1cc(/C=C/C(=O)NCc2nc(-c3ccc(F)cc3)c(-c3nc(C(=O)NC(C)C)cs3)o2)ccc1O` [Example 261], for which the half-inhibitory concentration (IC50) was at most 1000 nM.
Then `COc1ccc(/C=C/C(=O)NCc2nc(-c3ccc(F)cc3)c(-c3nc(C(=O)NC(C)C)cs3)o2)cc1O` [Example 262], with at most 1000 nM.
Then `CCCCOc1ccc(C(=O)NCc2nc(-c3ccc(F)cc3)c(-c3nc(C(=O)NC(C)C)cs3)o2)cc1` [Example 263], with over 1000 nM.
The value for `CC(C)NC(=O)c1csc(-c2oc(CNC(=O)c3cc4cc(Cl)ccc4o3)nc2-c2ccc(F)cc2)n1` [Example 264] was at most 1000 nM; that for `COc1ccc([N+](=O)[O-])c(C(=O)NCc2nc(-c3ccc(F)cc3)c(-c3nc(C(=O)NC(C)C)cs3)o2)c1` [Example 265] was at most 1000 nM; that for `COc1cc(C(=O)NCc2nc(-c3ccc(F)cc3)c(-c3nc(C(=O)NC(C)C)cs3)o2)cc(OC)c1O` [Example 266] was at most 1000 nM.
In the case of `CC(C)NC(=O)c1csc(-c2oc(CNC(=O)c3ccccc3-c3ccccc3)nc2-c2ccc(F)cc2)n1` [Example 267], the IC50 is over 1000 nM.
As to `CC(C)NC(=O)c1csc(-c2oc(CNC(=O)c3cccc(Br)c3)nc2-c2ccc(F)cc2)n1` [Example 268], the concentration for half-maximal inhibition (IC50) is over 1000 nM.
The value for `CC(C)NC(=O)c1csc(-c2oc(CNC(=O)c3ccc(Br)cc3)nc2-c2ccc(F)cc2)n1` [Example 269] was over 1000 nM; that for `CC(C)NC(=O)c1csc(-c2oc(CNC(=O)c3cccc(Cl)c3[N+](=O)[O-])nc2-c2ccc(F)cc2)n1` [Example 270] was at most 1000 nM.
The value for `CC(C)NC(=O)c1csc(-c2oc(CNC(=O)c3cc([N+](=O)[O-])ccc3Cl)nc2-c2ccc(F)cc2)n1` [Example 271] was at most 1000 nM; that for `CC(C)NC(=O)c1csc(-c2oc(CNC(=O)c3ccc([N+](=O)[O-])cc3Cl)nc2-c2ccc(F)cc2)n1` [Example 272] was at most 1000 nM.
The molecule `CC(C)NC(=O)c1csc(-c2oc(CNC(=O)c3ccc(Cl)cc3[N+](=O)[O-])nc2-c2ccc(F)cc2)n1` [Example 273] came in with a 50% inhibitory concentration (IC50) of at most 1000 nM.
In turn, `CC(C)NC(=O)c1csc(-c2oc(CNC(=O)c3ccc(Cl)c([N+](=O)[O-])c3)nc2-c2ccc(F)cc2)n1` [Example 274] had an IC50 of over 1000 nM.
As for `CC(C)NC(=O)c1csc(-c2oc(CNC(=O)c3cc(Cl)ccc3[N+](=O)[O-])nc2-c2ccc(F)cc2)n1` [Example 275], the concentration for half-maximal inhibition (IC50) is at most 1000 nM.
The value for `CC(C)NC(=O)c1csc(-c2oc(CNC(=O)c3cccc(Br)n3)nc2-c2ccc(F)cc2)n1` [Example 276] was over 1000 nM.
Regarding `CC(C)NC(=O)c1csc(-c2oc(CNC(=O)c3cncc(Br)c3)nc2-c2ccc(F)cc2)n1` [Example 277], the IC50 was at most 1000 nM.
As to `CC(C)NC(=O)c1csc(-c2oc(CNC(=O)c3cc(F)c(F)cc3[N+](=O)[O-])nc2-c2ccc(F)cc2)n1` [Example 278], the IC50 is at most 1000 nM.
In the case of `CC(C)NC(=O)c1csc(-c2oc(CNC(=O)Cc3ccc(C(F)(F)F)cc3)nc2-c2ccc(F)cc2)n1` [Example 279], the IC50 was over 1000 nM.
The value for `CC(C)Cc1ccc(C(C)C(=O)NCc2nc(-c3ccc(F)cc3)c(-c3nc(C(=O)NC(C)C)cs3)o2)cc1` (stereo not shown) [Example 280] was over 1000 nM.
Then `CC(C)NC(=O)c1csc(-c2oc(CNC(=O)c3cc(Cl)c(O)c(Cl)c3)nc2-c2ccc(F)cc2)n1` [Example 281], with at most 1000 nM.
As for `CC(C)NC(=O)c1csc(-c2oc(CNC(=O)c3c(F)c(F)c(F)c(F)c3F)nc2-c2ccc(F)cc2)n1` [Example 282], the IC50 was at most 1000 nM.
In turn, `COc1cc(OC)c(C(=O)NCc2nc(-c3ccc(F)cc3)c(-c3nc(C(=O)NC(C)C)cs3)o2)c(OC)c1` [Example 283] yielded an IC50 of at most 1000 nM.
The value for `COc1cc(OC)c(C(=O)NCc2nc(-c3ccc(F)cc3)c(-c3nc(C(=O)NC(C)C)cs3)o2)cc1OC` [Example 284] was over 1000 nM; that for `COc1cc(C(=O)NCc2nc(-c3ccc(F)cc3)c(-c3nc(C(=O)NC(C)C)cs3)o2)cc(OC)c1OC` [Example 285] was over 1000 nM.
`COc1ccc(C(=O)NCc2nc(-c3ccc(F)cc3)c(-c3nc(C(=O)NC(C)C)cs3)o2)c(OC)c1OC` [Example 286]: the IC50 was over 1000 nM.
The value for `CC(C)NC(=O)c1csc(-c2oc(CNC(=O)c3ccccc3Cc3ccccc3)nc2-c2ccc(F)cc2)n1` [Example 287] was over 1000 nM; that for `CC(C)NC(=O)c1csc(-c2oc(CNC(=O)c3cccc(Oc4ccccc4)c3)nc2-c2ccc(F)cc2)n1` [Example 288] was over 1000 nM.
Then `CC(C)NC(=O)c1csc(-c2oc(CNC(=O)c3ccccc3Oc3ccccc3)nc2-c2ccc(F)cc2)n1` [Example 289], with over 1000 nM; and `CC(C)NC(=O)c1csc(-c2oc(CNC(=O)c3ccc(Oc4ccccc4)cc3)nc2-c2ccc(F)cc2)n1` [Example 290], with over 1000 nM.
As to `CC(C)NC(=O)c1csc(-c2oc(CNC(=O)c3ccc(-c4ccc(O)cc4)cc3)nc2-c2ccc(F)cc2)n1` [Example 291], the half-inhibitory concentration (IC50) is at most 1000 nM.
Then `Cc1cc(C(=O)NCc2nc(-c3ccc(F)cc3)c(-c3nc(C(=O)NC(C)C)cs3)o2)ccc1Br` [Example 292], with over 1000 nM; and `Cc1ccc(C(=O)NCc2nc(-c3ccc(F)cc3)c(-c3nc(C(=O)NC(C)C)cs3)o2)cc1Br` [Example 293], with over 1000 nM; and `CC(C)NC(=O)c1csc(-c2oc(CNC(=O)Cc3ccc(Br)cc3)nc2-c2ccc(F)cc2)n1` [Example 294], with over 1000 nM.
Then `CC(C)NC(=O)c1csc(-c2oc(CNC(=O)C3CCCN3C(=O)OC(C)(C)C)nc2-c2ccc(F)cc2)n1` (stereo not shown) [Example 295], with over 1000 nM.

A word on the IC50: it is the concentration that gives 50% inhibition. Read a low IC50 as greater potency.
